Experiment: xn = mol fraction of the nth substance listed
Details: 100 kPa

Nc1ccccc1 + CCCC[n+]1ccn(C)c1.O=S(=O)([O-])C(F)(F)F
x1 = 1
Details | viscosity [mPa·s]
288.15 K | 5.32
293.15 K | 4.41
298.15 K | 3.74
303.15 K | 3.2
308.15 K | 2.78
313.15 K | 2.45
318.15 K | 2.159
328.15 K | 1.738
333.15 K | 1.577

CCCC[n+]1ccn(C)c1.O=S(=O)([O-])C(F)(F)F + CN(C)c1ccccc1
x2 = 0
Details | viscosity [mPa·s]
288.15 K | 132.7
293.15 K | 102
298.15 K | 80.1
303.15 K | 64
313.15 K | 42.8
318.15 K | 35.7
323.15 K | 30
328.15 K | 25.5
333.15 K | 22

CN(C)c1ccccc1 + CCCC[n+]1ccn(C)c1.O=S(=O)([O-])C(F)(F)F
viscosity [mPa·s]
Details | 288.15 K | 293.15 K | 298.15 K | 303.15 K | 308.15 K | 313.15 K | 318.15 K | 323.15 K | 328.15 K | 333.15 K
x1 = 0.1 | 97.6 | 75.7 | 59.9 | 48.1 | 39.5 | 32.2 | – | 23 | – | –
x1 = 0.2 | 72.8 | 57.1 | 45.7 | 37 | – | – | 21.46 | 18.3 | 15.74 | 13.64
x1 = 0.2998 | – | 42.8 | 34.8 | 28.4 | 23.9 | 19.91 | 17.1 | 14.72 | 12.77 | 11.16
x1 = 0.397 | – | 31.5 | – | 21.69 | 18.27 | 15.46 | 13.4 | 11.63 | 10.19 | 8.98
x1 = 0.5045 | 26.1 | 21.17 | 17.76 | 14.77 | 12.85 | 11.04 | 9.68 | 8.5 | 7.52 | –
x1 = 0.5996 | 16.87 | 13.93 | 11.92 | 10.23 | 8.87 | 7.69 | 6.84 | 6.08 | 5.43 | 4.9
x1 = 0.6997 | – | 8.5 | 7.42 | 6.47 | 5.71 | – | – | 4.09 | 3.7 | 3.36
x1 = 0.7994 | 6 | 5.21 | 4.62 | 4.1 | 3.68 | 3.3 | 3.01 | 2.75 | 2.52 | 2.31
x1 = 0.8945 | 3.27 | 2.91 | – | 2.37 | 2.164 | 1.988 | – | 1.692 | – | –
x1 = 1 | – | – | 1.302 | 1.206 | 1.123 | 1.056 | 0.981 | – | 0.865 | 0.819

CCCC[n+]1ccn(C)c1.O=S(=O)([O-])C(F)(F)F + Nc1ccccc1
viscosity [mPa·s]
Details | 288.15 K | 293.15 K | 298.15 K | 303.15 K | 308.15 K | 313.15 K | 318.15 K | 323.15 K | 328.15 K | 333.15 K
x2 = 0 | – | 102 | 80.1 | 64 | 52.2 | 42.8 | 35.7 | 30 | 25.5 | 22
x2 = 0.1 | 110.3 | 85.3 | 67.5 | 54.6 | 44.4 | 36.6 | 30.6 | 25.9 | 22.17 | 19.07
x2 = 0.1995 | 90.9 | 70.6 | – | 45.5 | 37.2 | 30.7 | 25.8 | 21.9 | 18.82 | –
x2 = 0.3002 | – | – | 45.9 | – | 30.6 | 25.4 | 21.47 | – | 15.71 | 13.63
x2 = 0.3996 | – | – | – | – | – | – | – | 15.11 | 13.02 | 11.38
x2 = 0.8999 | 8.95 | 7.31 | 6.18 | 5.26 | 4.54 | 3.93 | 3.5 | – | – | 2.47
